Experimental data as given in patent US9125913B2, “Bcl-2-selective apoptosis-inducing agents for the treatment of cancer and immune diseases” (AbbVie Inc., priority 2008, dated 2015).

System: GST-Bcl-2
Test: TR-FRET binding assay, Bcl-2
Conditions: TR-FRET Ki values
How it was run: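 Ki values come from Wang's competitive-binding equation applied to TR-FRET signal (excitation 340/35 nm; emission 520/525 nm F-Bak peptide, 495/510 nm Tb antibody). Protein, probe and antibody incubated with compound 3 h at room temperature; dilution series began at 50 μM as 2× stock in 10% DMSO.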

SMILES	Binding selectivity ratio (Bcl-XL Ki/Bcl-2 Ki)
CC1(C)CCC(CN2CCN(c3ccc(C(=O)NS(=O)(=O)c4cnc(NC5CCN(C6CC6)CC5)c(Cl)c4)c(Oc4cccc5[nH]ncc45)c3)CC2)=C(c2ccc(Cl)cc2)C1 [EXAMPLE 448, N-({5-chloro-6-[(1-cyclopropylpiperidin-4-yl)amino]pyridin-3-yl}sulfonyl)-4-(4-{[2-(4-chlorophenyl)-4,4-dimethylcyclohex-1-en-1-yl]methyl}piperazin-1-yl)-2-(1H-indazol-4-yloxy)benzamide]	3119
CC1(C)CCC(CN2CCN(c3ccc(C(=O)NS(=O)(=O)c4ccc(NC5CCN(S(C)(=O)=O)CC5)c([N+](=O)[O-])c4)c(Oc4ccc5[nH]ccc5c4)c3)CC2)=C(c2ccc(Cl)cc2)C1 [EXAMPLE 335, 4-(4-{[2-(4-chlorophenyl)-4,4-dimethylcyclohex-1-en-1-yl]methyl}piperazin-1-yl)-2-(1H-indol-5-yloxy)-N-[(4-{[1-(methylsulfonyl)piperidin-4-yl]amino}-3-nitrophenyl)sulfonyl]benzamide]	>1508.2
CC(=O)N1CCC(Nc2ccc(S(=O)(=O)NC(=O)c3ccc(N4CCN(CC5=C(c6ccc(Cl)cc6)CC(C)(C)CC5)CC4)cc3Oc3ccc4[nH]ccc4c3)cc2[N+](=O)[O-])CC1 [EXAMPLE 334, N-({4-[(1-acetylpiperidin-4-yl)amino]-3-nitrophenyl}sulfonyl)-4-(4-{[2-(4-chlorophenyl)-4,4-dimethylcyclohex-1-en-1-yl]methyl}piperazin-1-yl)-2-(1H-indol-5-yloxy)benzamide]	>3697.5
CC1(C)CCC(CN2CCN(c3ccc(C(=O)NS(=O)(=O)c4ccc(NN5CCOCC5)c([N+](=O)[O-])c4)c(Oc4cccc5[nH]ccc45)c3)CC2)=C(c2ccc(Cl)cc2)C1 [EXAMPLE 262, 4-(4-{[2-(4-chlorophenyl)-4,4-dimethylcyclohex-1-en-1-yl]methyl}piperazin-1-yl)-2-(1H-indol-4-yloxy)-N-{[4-(morpholin-4-ylamino)-3-nitrophenyl]sulfonyl}benzamide]	219.9
CN(C)CCCNc1ccc(S(=O)(=O)NC(=O)c2ccc(N3CCN(CC4=C(c5ccc(Cl)cc5)CCC(C)(C)C4)CC3)cc2Oc2ccc3[nH]ccc3c2)cc1[N+](=O)[O-] [Example 51, 4-(4-{[2-(4-chlorophenyl)-5,5-dimethylcyclohex-1-en-1-yl]methyl}piperazin-1-yl)-N-[(4-{[3-(dimethylamino)propyl]amino}-3-nitrophenyl)sulfonyl]-2-(1H-indol-5-yloxy)benzamide]	62.1
CC1(C)CCC(CN2CCN(c3ccc(C(=O)NS(=O)(=O)c4ccc(NCCN5CCCCC5=O)c([N+](=O)[O-])c4)c(Oc4ccc5[nH]ccc5c4)c3)CC2)=C(c2ccc(Cl)cc2)C1 [EXAMPLE 267, 4-(4-{[2-(4-chlorophenyl)-4,4-dimethylcyclohex-1-en-1-yl]methyl}piperazin-1-yl)-2-(1H-indol-5-yloxy)-N-[(3-nitro-4-{[2-(2-oxopiperidin-1-yl)ethyl]amino}phenyl)sulfonyl]benzamide]	>1453.3
CC1(C)CCC(CN2CCN(c3ccc(C(=O)NS(=O)(=O)c4cc(F)c(NCC5CCOCC5)cc4Cl)c(Oc4ccc5[nH]ccc5c4)c3)CC2)=C(c2ccc(Cl)cc2)C1 [EXAMPLE 379, N-({2-chloro-5-fluoro-4-[(tetrahydro-2H-pyran-4-ylmethyl)amino]phenyl}sulfonyl)-4-(4-{[2-(4-chlorophenyl)-4,4-dimethylcyclohex-1-en-1-yl]methyl}piperazin-1-yl)-2-(1H-indol-5-yloxy)benzamide]	>2.6
CC1(C)CCC(CN2CCN(c3ccc(C(=O)NS(=O)(=O)c4ccc(OCC#CCN5CCOCC5)c([N+](=O)[O-])c4)c(Oc4ccc5[nH]ccc5c4)c3)CC2)=C(c2ccc(Cl)cc2)C1 [EXAMPLE 390, 4-(4-{[2-(4-chlorophenyl)-4,4-dimethylcyclohex-1-en-1-yl]methyl}piperazin-1-yl)-2-(1H-indol-5-yloxy)-N-({4-[(4-morpholin-4-ylbut-2-ynyl)oxy]-3-nitrophenyl}sulfonyl)benzamide]	339.6
CC1(C)CCC(CN2CCN(c3ccc(C(=O)NS(=O)(=O)c4ccc(C(=O)NCC5CCOCC5)cc4)c(Oc4ccc5[nH]ccc5c4)c3)CC2)=C(c2ccc(Cl)cc2)C1 [EXAMPLE 308, 4-(4-{[2-(4-chlorophenyl)-4,4-dimethylcyclohex-1-en-1-yl]methyl}piperazin-1-yl)-2-(1H-indol-5-yloxy)-N-[(4-{[(tetrahydro-2H-pyran-4-ylmethyl)amino]carbonyl}phenyl)sulfonyl]benzamide]	>11.5
CC1(C)CCC(CN2CCN(c3ccc(C(=O)NS(=O)(=O)c4ccc(NCC5CCOCC5)c(C(F)(F)F)c4)c(Oc4ccc5[nH]ccc5c4)c3)CC2)=C(c2ccc(Cl)cc2)C1 [EXAMPLE 277, 4-(4-{[2-(4-chlorophenyl)-4,4-dimethylcyclohex-1-en-1-yl]methyl}piperazin-1-yl)-2-(1H-indol-5-yloxy)-N-{[4-[(tetrahydro-2H-pyran-4-ylmethyl)amino]-3-(trifluoromethyl)phenyl]sulfonyl}benzamide]	>22.2
CC1(C)CCC(CN2CCN(c3ccc(C(=O)NS(=O)(=O)c4ccc(NCC5(O)CCCCC5)c([N+](=O)[O-])c4)c(Oc4ccc5[nH]ccc5c4)c3)CC2)=C(c2ccc(Cl)cc2)C1 [EXAMPLE 238, 4-(4-{[2-(4-chlorophenyl)-4,4-dimethylcyclohex-1-en-1-yl]methyl}piperazin-1-yl)-N-[(4-{[(1-hydroxycyclohexyl)methyl]amino}-3-nitrophenyl)sulfonyl]-2-(1H-indol-5-yloxy)benzamide]	>1534.3
CC1(C)CCC(CN2CCN(c3ccc(C(=O)NS(=O)(=O)c4ccc(NCCN5CCNC(=O)C5)c([N+](=O)[O-])c4)c(Oc4ccc5[nH]ccc5c4)c3)CC2)=C(c2ccc(Cl)cc2)C1 [EXAMPLE 273, 4-(4-{[2-(4-chlorophenyl)-4,4-dimethylcyclohex-1-en-1-yl]methyl}piperazin-1-yl)-2-(1H-indol-5-yloxy)-N-[(3-nitro-4-{[2-(3-oxopiperazin-1-yl)ethyl]amino}phenyl)sulfonyl]benzamide]	2396.1
CC1(C)CCC(CN2CCN(c3ccc(C(=O)NS(=O)(=O)c4ccc(OC5CCN(C6CCOCC6)CC5)c([N+](=O)[O-])c4)c(Oc4ccc5[nH]ccc5c4)c3)CC2)=C(c2ccc(Cl)cc2)C1 [EXAMPLE 389, 4-(4-{[2-(4-chlorophenyl)-4,4-dimethylcyclohex-1-en-1-yl]methyl}piperazin-1-yl)-2-(1H-indol-5-yloxy)-N-({3-nitro-4-[(1-tetrahydro-2H-pyran-4-ylpiperidin-4-yl)oxy]phenyl}sulfonyl)benzamide]	685.5
CC1(C)CCC(CN2CCN(c3ccc(C(=O)NS(=O)(=O)c4ccc(NCCC#N)c([N+](=O)[O-])c4)c(Oc4ccc5[nH]ccc5c4)c3)CC2)=C(c2ccc(Cl)cc2)C1 [EXAMPLE 319, 4-(4-{[2-(4-chlorophenyl)-4,4-dimethylcyclohex-1-en-1-yl]methyl}piperazin-1-yl)-N-({4-[(2-cyanoethyl)amino]-3-nitrophenyl}sulfonyl)-2-(1H-indol-5-yloxy)benzamide]	503.4
CC1(C)CCC(c2ccc(Cl)cc2)=C(CN2CCN(c3ccc(C(=O)NS(=O)(=O)c4ccc(NCCCN5CCOCC5)c([N+](=O)[O-])c4)c(Oc4ccc5[nH]ccc5c4)c3)CC2)C1 [Example 50, 4-(4-{[2-(4-chlorophenyl)-5,5-dimethylcyclohex-1-en-1-yl]methyl}piperazin-1-yl)-2-(1H-indol-5-yloxy)-N-({4-[(3-morpholin-4-ylpropyl)amino]-3-nitrophenyl}sulfonyl)benzamide]	191.2
CC1(C)CCC(CN2CCN(c3ccc(C(=O)NS(=O)(=O)c4ccc(OCC5(C)COC5)c([N+](=O)[O-])c4)c(Oc4ccc5[nH]ccc5c4)c3)CC2)=C(c2ccc(Cl)cc2)C1 [EXAMPLE 286, 4-(4-{[2-(4-chlorophenyl)-4,4-dimethylcyclohex-1-en-1-yl]methyl}piperazin-1-yl)-2-(1H-indol-5-yloxy)-N-({4-[(3-methyloxetan-3-yl)methoxy]-3-nitrophenyl}sulfonyl)benzamide]	>1165.0
CC1(C)CCC(CN2CCN(c3ccc(C(=O)NS(=O)(=O)c4ccc(OCC5(F)CCOCC5)c([N+](=O)[O-])c4)c(Oc4ccc5[nH]ccc5c4)c3)CC2)=C(c2ccc(Cl)cc2)C1 [EXAMPLE 327, 4-(4-{[2-(4-chlorophenyl)-4,4-dimethylcyclohex-1-en-1-yl]methyl}piperazin-1-yl)-N-({4-[(4-fluorotetrahydro-2H-pyran-4-yl)methoxy]-3-nitrophenyl}sulfonyl)-2-(1H-indol-5-yloxy)benzamide]	3035.4
C#Cc1cc(S(=O)(=O)NC(=O)c2ccc(N3CCN(CC4=C(c5ccc(Cl)cc5)CC(C)(C)CC4)CC3)cc2Oc2cccc3[nH]ccc23)cnc1OCC1CCOCC1 [EXAMPLE 391, 4-(4-{[2-(4-chlorophenyl)-4,4-dimethylcyclohex-1-en-1-yl]methyl}piperazin-1-yl)-N-{[5-ethynyl-6-(tetrahydro-2H-pyran-4-ylmethoxy)pyridin-3-yl]sulfonyl}-2-(1H-indol-4-yloxy)benzamide]	>186.4
CC1(C)CCC(CN2CCN(c3ccc(C(=O)NS(=O)(=O)c4ccc(NCC5CCOCC5)c([N+](=O)[O-])c4)c(Oc4cccc5[nH]ncc45)c3)CC2)=C(c2ccc(Cl)cc2)C1 [EXAMPLE 400, 4-(4-{[2-(4-chlorophenyl)-4,4-dimethylcyclohex-1-en-1-yl]methyl}piperazin-1-yl)-2-(1H-indazol-4-yloxy)-N-({3-nitro-4-[(tetrahydro-2H-pyran-4-ylmethyl)amino]phenyl}sulfonyl)benzamide]	>3643.8
